Experimental data: patent publication US20100204132A1, “[…] USES OF PEPTIDES […] and […]” (priority 2007, published 2010)
Where no end group is shown, it is not given here.

Assays:
HIV-1IIIB = test: HIV-1 antiviral assay in CEM-SS cells (MTS readout)
HUVEC = test: Endothelial tube formation assay; type: cell-based, human; settings: 10 micrograms per ml, 20 hours
Excerpt: […] control wes vehicle only. […] Raw data were expressed as average tubule lenghs in pixels±standard deviation.

Streptococcus pneumoniae = Streptococcus pneumoniae growth assay; type: cell-based; settings: 10 micrograms per ml; 5×10^5 CFU/mL
HCMV strain AD169 = test: HCMV plaque formation assay in MRC-5 cells; type: cell-based; settings: 10 micrograms per ml, 7-10 days
Excerpt: Cells were split twic a week 1:2.
Ganciclovir was used as positive control.

[1] = system: hepatitis B virus (HBV) ayw strain; test: HBV experimental assay system, secreted HBV DNA by TaqMan PCR; type: cell-based; settings: 10 micrograms per ml; HepG2-2.2.15 cells; six days
[2] = system: Primary Human endothelial cells (HUVEC); test: Endothelial cell migration assay; type: cell-based; settings: 10 micrograms per ml, 22 hours
Procedure: Thereafter, designated concentration of testing peptides—10 micrograms per ml—was added in duplicate wells.

murine spleen cells = test: Th1/Th2 cytokine profiling assay in Ovalbumin-restimulated spleen cells; type: cell-based, Balb/c mice; settings: 10 micrograms per ml, Ovalbumin restimulation, 72 hours

Row | Molecule | antiviral activity of positive control compounds (HIV-1) (HIV-1IIIB) | inhibition of the tube formation of human endothelial cells (HUVEC) | inhibition of the growth of Streptococcus pneumoniae (Streptococcus pneumoniae) | inhibition of HCMV plaque formation as compared to the virus control (HCMV strain AD169) | inhibition of HBV replication as compared to the virus control infection [1] | increase of the migration of human endothelial cells [2] | change of the production of IFN-γ (murine spleen cells) | change of the production of IL-5 (murine spleen cells) | change of the production of TNF-a (murine spleen cells) | induction (increase) of the production of IL-2 (murine spleen cells) | induction (increase) of the production of IL-4 (murine spleen cells)
1 | Cc1cn([C@H]2C[C@H](N=[N+]=[N-])[C@@H](CO)O2)c(=O)[nH]c1=O [AZT] | expected levels of antiviral activity |  |  |  |  |  |  |  |  |  | 
2 | CC(C)(C)NC(=O)[C@@H]1CN(Cc2cccnc2)CCN1C[C@@H](O)C[C@@H](Cc1ccccc1)C(=O)N[C@H]1c2ccccc2C[C@H]1O [indinavir] | expected levels of antiviral activity |  |  |  |  |  |  |  |  |  | 
3 | Trp-Met-Asn-Ser-Thr-Gly-Phe-Thr-Lys-Val-Cys-Gly-Ala-Pro-Pro-Cys-OH (WMNSTGFTKVCGAPPC-OH; cysteine pairing not given here) [Peptide 2] |  | 8% | 100% | did not inhibit | 53.2% | 7% | did not significantly change | did not significantly change | did not significantly change | 92.6% | 87.3%
4 | Tyr-Ser-Ala-Tyr-Pro-Asp-Ser-Val-Pro-Met-Met-Ser-OH [Peptide 1] |  | 4% | 100% | did not inhibit | 51.1% | 4% | did not significantly change | did not significantly change | did not significantly change | 82.2% | 74.3%
